# Assay results: patent publication US20160051542A1 (CHANRX CORPORATION, priority 2013, published 2016)
# Columns and labels:
# [1] = Daily dosing for 7 days in four patients (Example 4); format: in vivo, human; settings: 50, 100 and 150 mg daily, all patients
# [2] = Preliminary studies of daily use over 7, 10 and 14 days; format: in vivo; settings: 75, 100, 125 and 150 mg a day over 7, 10 and 14 days
# Source text: However, control and prevention of events of cardiac arrhythmia are important to these patients to prevent future re-occurrences and the deleterious effects and morbidity.
# [3] = tested on: recent onset symptomatic AF/AFL; assay: Randomised double-blind single oral dose study: conversion of recent onset symptomatic AF/AFL to sinus rhythm (Example 1); format: in vivo, human; settings: for Conversion of Atrial Flutter, %: pure atrial flutter subjects (N 4), any time within 24 hours
# Experimental: (§1) The vanoxerine or identical appearing placebo was randomly assigned and administered in a double-blinded fashion.
# Inclusion criteria included: male or female over the age of […], symptomatic AF/AFL for more than 3 hours and less than 7 days, as dated by symptoms, and adherence to local clinical standards or the […] practice guidelines for AF/AFL regarding thromboembolic event prevention and treatment
# Exclusion Criteria Included: • (a) Systolic blood pressure <100 mmHG, HR <50 bpm • (b) Average QTcF >440 ms, […] >140 ms • (c) Paced atrial or ventricular rhythm • (d) Serum potassium <3.5 meq/L • (e) History of receiving another Class 1 or Class III antiarrhythmic drug within 3 days of randomization, amiodarone (oral or IV) within 3 months • (f) Acute coronary syndrome within 30 days prior to randomization • (g) Aortic stenosis with AVA ≦1.0 cm^2 • (h) Mitral stenosis with MVA of <1.5 cm^2 • (i) Acute pulmonary edema/embolism • (j) Stroke within 30 days or TIA within 48 hours • (k) Untreated hyperthyroidism • (l) Acute pericarditis • (m) Postoperative AF/AFL within 7 days • (n) History of failed Direct current cardioversion • (o) History of polymorphic ventricular tachycardia (e.g. Torsade de Pointes) • (p) History or family history of long QT syndrome • (q) History of ventricular tachycardia requiring drug or device therapy • (r) History of NYHA Heart Failure Class III or IV or recent (within 1 month) onset of heart failure not related to rapid ventricular response AF • (s) Ejection fraction of 35% or less • (t) History of prior ablation therapy for cardiac arrhythmias
# 4-Hour Efficacy Endpoints: • (a) the proportion of subjects who convert to sinus rhythm for at least 1 minute through 4 hours after start of study drug. • (b) the proportion of subjects in sinus rhythm at 4 hours after start of study drug • (c) time to restoration of sinus rhythm within 4 hours
# 24-Hour Efficacy Endpoints • (a) the proportion of subjects who convert to sinus rhythm for at least 1 minute through 24 hours after start of study drug. • (b) the proportion of subjects in sinus rhythm at 24 hours after start of study drug • (c) time to restoration of sinus rhythm within 24 hours
# Statistical Considerations: • (a) Placebo subjects in all dose cohorts pooled to create one placebo dose group for comparison to the active dose groups • (b) each dose group compared separately with placebo • (c) Fisher's exact tests for difference in proportions between each dose level and placebo • (d) Time to restoration tested using the Kaplan-Meier method with difference in survivor functions; Log-Rank test used to compare each dose level with placebo • (e) No correction for multiple comparisons among dose groups.
# [4] = Adverse events in the single dose AF/AFL study (Example 1); format: in vivo, human
# Source text: as §1
# [5] = Daily dosing for 14 days in healthy patients (Example 3); format: in vivo, human; settings: 25, 75 and 125 mg daily for 14 days, meal 15 minutes prior to dosing
# Experimental: A standardized meal was served 15 minutes prior to each dosing.
# [6] = human, in vivo
# Source text: Furthermore, steady state plasma levels are achieved within 3 days of oral dosing in some studies and up to 14 days in other studies. In human studies, the typical time is between about 3-11 days for reaching steady state status. […] This provides for an opportunity to achieve steady state plasma levels for restoration or maintenance of normal sinus rhythm in mammals.
# [7] = Daily dosing for 11 consecutive days, PK and hemodynamics (Example 2); format: in vivo, human
structure (smiles),measurement,setting,value
"Fc1ccc(C(OCCN2CCN(CCCc3ccccc3)CC2)c2ccc(F)cc2)cc1 [vanoxerine, 1-[2-[bis(4-fluorophenyl)methoxy]ethyl]-4-(3-phenylpropyl)piperazine]",Time to steady state levels,[1],within one week
same,Heart rate and systolic blood pressure,[2],may lead to increased heart rate and systolic blood pressure
same,Percent conversion to sinus rhythm,"[3]; 200 mg single dose, 0-4 hr",18%
same,Percent conversion to sinus rhythm,"[3]; 200 mg single dose, 0-8 hr",45%
same,Percent conversion to sinus rhythm,"[3]; 200 mg single dose, 0-24 hr",59%
same,"Conversion of Atrial Flutter, %",[3]; 200 mg,50%
same,Percent conversion to sinus rhythm,"[3]; 300 mg single dose, 0-4 hr",40%
same,Percent conversion to sinus rhythm,"[3]; 300 mg single dose, 0-8 hr",52%
same,Percent conversion to sinus rhythm,"[3]; 300 mg single dose, 0-24 hr",64%
same,"Conversion of Atrial Flutter, %",[3]; 300 mg,75%
same,Percent conversion to sinus rhythm,"[3]; 400 mg single dose, 0-4 hr",52%
same,Percent conversion to sinus rhythm,"[3]; 400 mg single dose, 0-8 hr",76%
same,Percent conversion to sinus rhythm,"[3]; 400 mg single dose, 0-24 hr",84%
same,"Conversion of Atrial Flutter, %",[3]; 400 mg,75%
same,Conversion to sinus rhythm,"[3]; all doses of vanoxerine, at about 7 hours",greater than 40%
same,Conversion to sinus rhythm,"[3]; all doses, at 12 hours",greater than 50%
same,Conversion to sinus rhythm,"[3]; all doses, at about 16 hours",~60%
same,Number of adverse events reported,[4]; 200 mg,8 AEs
same,"Subjects reporting adverse events, N (%)",[4]; 200 mg (22 subjects),4 (18%) subjects
same,Number of adverse events reported,[4]; 300 mg,12 AEs
same,"Subjects reporting adverse events, N (%)",[4]; 300 mg (25 subjects),7 (28%) subjects
same,Number of adverse events reported,[4]; 400 mg,23 AEs
same,"Subjects reporting adverse events, N (%)",[4]; 400 mg (25 subjects),10 (40%) subjects
same,Tolerability,"[4]; 200, 300 and 400 mg single doses",well tolerated at all doses
same,1:1 AFL post dose,[4]; all doses,No 1:1 AFL seen post dose in any subject
same,"Serious adverse events, all doses","[4]; all doses, neither related to the study drug",two
same,Proarrhythmia,[4]; single doses 200-400 mg,absence of proarrhythmia
same,Adverse events,[5],No significant adverse events
same,Time for reaching steady state status,[6],3 to 11 days
same,Plasma levels,[7]; 25 mg daily,not detectable after 8 hours
same,PK linearity,"[7]; 50, 75 and 100 mg doses",linear and dose proportional
same,Plasma levels,"[7]; 50, 75 and 100 mg doses",detectable at 24 hours
same,Time at which steady state was reached,"[7]; 50, 75 and 100 mg doses",≤ 8 days
same,Heart rate and systolic blood pressure,[7]; 75 and 100 mg doses,increased slightly in most subjects
